Where a name gives a salt, the structure may show the parent alone.
What was measured:
Assay type in all cases: physicochemical
[1] = XRPD before and after DVS (form change); settings: state of sample post DVS
[2] = DVS water uptake / hygroscopicity; settings: for hygroscopicity (in words): conclusion from DVS where run
[3] = stressing at 40° C./75% RH (form change)
[4] = appearance under ambient condition; settings: wet solid under ambient condition; not tested by TGA/DSC

CNc1cc(C)nc(Nc2cnc(OC)c(OC[C@@H]3CCN(C)C3)c2)n1 [Compound 1R Hydrochloride Salt Type A]
form change after DVS [1]: No change in XRPD pattern
water uptake (DVS) ([2]; at 25° C./80% RH): ~8%
hygroscopicity (in words) [2]: hygroscopic

CNc1cc(C2CCOCC2)c2cc(OC)c(OCCCN3CCCC3)cc2n1 [Compound 2 Freebase Type A]
form change after DVS [1]: No form change
hygroscopicity (in words) [2]: slightly hygroscopic
water uptake (DVS) ([2]; from 0% to 80% RH): around 1.0%

CNc1cc(C)nc(Nc2ccc(OC)c(CNCCN3CCCC3)c2)n1 [Compound 3 Freebase Type A]
form change after DVS [1]: No form change
hygroscopicity (in words) [2]: hygroscopic
water uptake (DVS) ([2]; from 0% to 80% RH): around 12.9%

CNc1cc(C)nc(Nc2ccc(OC)c(CNCCN3CCCC3)c2)n1 [Compound 3 Glycolate Salt Type B]
form change after DVS [1]: deliquescence
water uptake (DVS) ([2]; from 0% to 80% RH): around 45.3%

CNc1cc(C)nc(Nc2ccc(OC)c(CNCCN3CCCC3)c2)n1 [Compound 3 Hydrochloride Salt Type A]
form change after DVS [1]: new hydrate form

CNc1cc(C)nc(Nc2ccc(OC)c(CNCCN3CCCC3)c2)n1 [Compound 3 Hydrochloride Salt Type B]
form change after DVS [1]: change of XRPD pattern was observed
water uptake (DVS) ([2]; at 25° C./80% RH): 15.3%
hygroscopicity (in words) [2]: hygroscopic

CNc1cc(C)nc(Nc2ccc(OC)c(CNCCN3CCCC3)c2)n1 [Compound 3 Sulfate Sate Type A]
form change after DVS [1]: No significant form change
water uptake (DVS) ([2]; at 25° C./80% RH): 20.5%
hygroscopicity (in words) [2]: highly hygroscopic

CNc1cc(C)nc(Nc2ccc(OC)c(OC[C@H](O)CN3CCCC3)c2)n1 [Compound 4R Freebase Type C]
form change after DVS [1]: No form change
hygroscopicity (in words) [2]: hygroscopic
water uptake (DVS) ([2]; from 0% to 80% RH): around 8.7%

CNc1cc(C)nc(Nc2ccc(OC)c(OC[C@H](O)CN3CCCC3)c2)n1 [Compound 4R Hydrochloride Salt Type A]
form change after DVS [1]: change of XRPD pattern was observed
hygroscopicity (in words) [2]: hygroscopic
water uptake (DVS) ([2]; from 50% RH to 80% RH at 25° C.): around 4%

CNc1cc(C)nc(Nc2ccc(OC)c(OC[C@H](O)CN3CCCC3)c2)n1 [Compound 4R Hydrochloride Salt Type B]
form change after DVS [1]: No form change
hygroscopicity (in words) [2]: very hygroscopic
water uptake (DVS) ([2]; from 0% to 80% RH): around 17.4%

CNc1cc(C)nc(Nc2ccc(OC)c(OC[C@H](O)CN3CCCC3)c2)n1 [Compound 4R Succinate Salt Type A]
form change after DVS [1]: No form change
hygroscopicity (in words) [2]: hygroscopic
water uptake (DVS) ([2]; from 0% to 80% RH): around 9.6%

CNc1cc(C)nc(Nc2ccc(OC)c(OC[C@H](O)CN3CCC3)c2)n1 [Compound 5R Fumarate Salt Type A]
form change after DVS [1]: No significant form change
water uptake (DVS) ([2]; at 25° C./80% RH): 7.6%
hygroscopicity (in words) [2]: hygroscopic

CNc1cc(C)nc(Nc2ccc(OC)c(OC[C@H](O)CN3CCC3)c2)n1 [Compound 5R Gentisate Salt Type E]
form change after stressing [3]: No form change

CNc1cc(C)nc(Nc2ccc(OC)c(OC[C@H](O)CN3CCC3)c2)n1 [Compound 5R Hippurate Salt Type A]
form change after DVS [1]: No significant form change
water uptake (DVS) ([2]; at 25° C./80% RH): 2.6%
hygroscopicity (in words) [2]: hygroscopic

CNCc1cnn(-c2cc(Nc3nc(C)cc(NC)n3)ccc2OC)c1 [Compound 6 Adipate Salt Type B]
form change after DVS [1]: form change from Compound 6 Adipate Salt Type B to Compound 6 Adipate Salt Type A
hygroscopicity (in words) [2]: hygroscopic
water uptake (DVS) ([2]; from 0% to 80% RH): around 8.8%

CNCc1cnn(-c2cc(Nc3nc(C)cc(NC)n3)ccc2OC)c1 [Compound 6 Glycolate Salt Type A]
hygroscopicity (in words) [4]: high hygroscopicity

CNCc1cnn(-c2cc(Nc3nc(C)cc(NC)n3)ccc2OC)c1 [Compound 6 Hydrochloride Salt Type A]
form change after DVS [1]: Form change was observed
hygroscopicity (in words) [2]: very hygroscopic
water uptake (DVS) ([2]; from 0% to 80% RH): around 19.4%

CNCc1cnn(-c2cc(Nc3nc(C)cc(NC)n3)ccc2OC)c1 [Compound 6 freebase Type A]
form change after DVS [1]: No form change
hygroscopicity (in words) [2]: hygroscopic
water uptake (DVS) ([2]; from 0% to 80% RH): around 4.4%

CNCc1cnn(-c2c(OC)ccc(Nc3nc(C)cc(NC)n3)c2F)c1 [Compound 7 Fumarate Salt Type A]
hygroscopicity (in words) [2]: low hygroscopicity

CNCc1cnn(-c2c(OC)ccc(Nc3nc(C)cc(NC)n3)c2F)c1 [Compound 7 Fumarate Salt Type C]
water uptake (DVS) ([2]; from 0% to 80% RH): around 1.9%

From patent US20220324851A1, “AMINE-SUBSTITUTED HETEROCYCLIC COMPOUNDS AS EHMT2 INHIBITORS, SALTS THEREOF, AND METHODS OF SYNTHESIS THEREOF” (Epizyme, Inc., priority 2017, published 2022)
